Assays:
[1] = surface tension of aqueous solution (0.1%); assay type: physicochemical; conditions: for γs (surface tension): aqueous solution at a concentration of 0.1%; for surface tension: aqueous solution containing 0.1%
Procedure: (§1) The surface tension of an aqueous solution containing 0.1% of this salt is 19.2 mN m^-1 at 25° C. The interfacial tension of an aqueous solution containing 0.1% of this salt, in equilibrium with cyclohexane, is 5.8 mN m^-1 at 25° C.
(§2) The surface tension of an aqueous solution containing 0.1% of this salt is 15.5 mN m^-1 at 25° C. The interfacial tension of an aqueous solution containing 0.1% of this salt, in equilibrium with cyclohexane, is 6.4 mN m.-1 at 25° C.
This yields the corresponding quaternary salts of formula: [drawing 19] which are colorless or slightly orange-colored pastes. These salts are completely water-soluble. Their yield and the surface tension at 25° C. of an aqueous solution at a concentration of 0.1% are shown in the second and third columns of Table 5.
(§3) The surface tension Ys and interfacial tension Yi (relative to cyclohexane)of the ammonium salt in question, which are measured at 25° C. in aqueous solution at a concentration of 0.1%, are shown in the fourth and fifth columns of Table 6, the third column showing the yield.
(§4) The surface tension of an aqueous solution containing 0.1% of this salt is 15.5 mN m^-1 at 25° C. The interfacial tension in relation to cyclohexane in the same conditions is 5.5 mN m^-1 .
(§5) By proceeding in the same manner starting with 1,3-dibromopropane, the double quaternary salt of formula: [drawing 24] is obtained in a 98% yield. The surface tension of an aqueous solution containing 0.1% of this salt is 16.4 mN m^-1 at 25° C. The interfacial tension relative to cyclohexane in the same conditions is 7.7 mN m^1.
The surface tension of an aqueous solution containing 0.1% of this N-oxide at 25° C. is 16.3 mN m^-1
The surface tension of an aqueous solution containing 1 0.1% of this betaine is 16.2 mN m^-1.

[2] = interfacial tension of aqueous solution (0.1%) relative to cyclohexane; assay type: physicochemical; conditions: 25° C.; for γi (interfacial tension relative to cyclohexane): Table 6, aqueous solution at a concentration of 0.1%
Procedure: as §1, §2, §3, §4, §5

[3] = aqueous solution containing 0.1%, cyclohexane

Row | SMILES | γi (interfacial tension relative to cyclohexane) ([2]; cyclohexane) [mN m^-1] | γs (surface tension) ([1]; Table 6, 25° C.) [mN m^-1] | other results
1 | C[N+](C)(CCO)CCNC(=S)NCCC(F)(F)C(F)(F)C(F)(F)C(F)(F)C(F)(F)C(F)(F)F [HOC2 H4Br] |  |  | γs (surface tension) ([1]; Table 5, 25° C.): 15.4 mN m^-1
2 | CCCCCCCC[N+](C)(C)CCNC(=S)NCCC(F)(F)C(F)(F)C(F)(F)C(F)(F)C(F)(F)C(F)(F)C(F)(F)C(F)(F)F [C8 F17 / C8 H17] | 3.2 | 15.9 | 
3 | CCCCCCCC[N+](C)(C)CCNC(=S)NCCC(F)(F)C(F)(F)C(F)(F)C(F)(F)F [C4 F9 / C8 H17] | 0.7 | 19.7 | 
4 | CCCCCCCCCCCC[N+](C)(C)CCNC(=S)NCCC(F)(F)C(F)(F)C(F)(F)C(F)(F)C(F)(F)C(F)(F)C(F)(F)C(F)(F)F [C8 F17 / C12 H25] | 2.2 | 15.2 | 
5 | C[N+](C)(C)CCNC(=S)NCCC(F)(F)C(F)(F)C(F)(F)C(F)(F)C(F)(F)C(F)(F)C(F)(F)C(F)(F)F |  |  | interfacial tension in equilibrium with cyclohexane [2, 3]: 6.4 mN m.-1; surface tension ([1]; 25° C.): 15.5 mN m^-1
6 | C[N+](C)([O-])CCNC(=S)NCCC(F)(F)C(F)(F)C(F)(F)C(F)(F)C(F)(F)C(F)(F)F |  |  | surface tension ([1]; 25° C.): 16.3 mN m^-1
7 | C[N+](C)(CCNC(=S)NCCC(F)(F)C(F)(F)C(F)(F)C(F)(F)C(F)(F)C(F)(F)F)Cc1ccccc1 |  |  | γs (surface tension) ([1]; Table 5, 25° C.): 17.4 mN m^-1
8 | C=CC[N+](C)(C)CCNC(=S)NCCC(F)(F)C(F)(F)C(F)(F)C(F)(F)C(F)(F)C(F)(F)F [CH2CHCH2Br] |  |  | γs (surface tension) ([1]; Table 5, 25° C.): 16.4 mN m^-1
9 | C[N+](C)(CCNC(=S)NCCC(F)(F)C(F)(F)C(F)(F)C(F)(F)C(F)(F)C(F)(F)F)CC[N+](C)(C)CCNC(=S)NCCC(F)(F)C(F)(F)C(F)(F)C(F)(F)C(F)(F)C(F)(F)F |  |  | interfacial tension in equilibrium with / relative to cyclohexane [2, 3]: 5.5 mN m^-1; surface tension ([1]; 25° C.): 15.5 mN m^-1
10 | C[N+](C)(C)CCNC(=S)NCCC(F)(F)C(F)(F)C(F)(F)C(F)(F)C(F)(F)C(F)(F)F |  |  | interfacial tension in equilibrium with / relative to cyclohexane [2, 3]: 5.8 mN m^-1; surface tension ([1]; 25° C.): 19.2 mN m^-1
11 | CCCCC[N+](C)(C)CCNC(=S)NCCC(F)(F)C(F)(F)C(F)(F)C(F)(F)C(F)(F)C(F)(F)C(F)(F)C(F)(F)F [C8 F17 / C5 H11] | 2 | 16 | 
12 | C[N+](C)(CCC[N+](C)(C)CCNC(=S)NCCC(F)(F)C(F)(F)C(F)(F)C(F)(F)C(F)(F)C(F)(F)F)CCNC(=S)NCCC(F)(F)C(F)(F)C(F)(F)C(F)(F)C(F)(F)C(F)(F)F |  |  | interfacial tension relative to cyclohexane ([2]; in the same conditions: aqueous solution containing 0.1%): 7.7 mN m^1; surface tension ([1]; 25° C.): 16.4 mN m^-1
13 | CCCCCCCCCCCC[N+](C)(C)CCNC(=S)NCCC(F)(F)C(F)(F)C(F)(F)C(F)(F)F [C4 F9 / C12 H25] | 1.9 | 23.1 | 
14 | CCCCCCCCCCCCCCCC[N+](C)(C)CCNC(=S)NCCC(F)(F)C(F)(F)C(F)(F)C(F)(F)F [C4 F9 / C16 H33] | 2.1 | 26.8 | 
15 | CCCCCCCCCCCC[N+](C)(C)CCNC(=S)NCCC(F)(F)C(F)(F)C(F)(F)C(F)(F)C(F)(F)C(F)(F)F [C6 F13 / C12 H25] | 0.8 | 17.5 | 
16 | C[N+](C)(CCNC(=S)NCCC(F)(F)C(F)(F)C(F)(F)C(F)(F)C(F)(F)C(F)(F)F)CC(=O)[O-] |  |  | surface tension ([1]; temperature not given): 16.2 mN m^-1
17 | CCCCCCCC[N+](C)(C)CCNC(=S)NCCC(F)(F)C(F)(F)C(F)(F)C(F)(F)C(F)(F)C(F)(F)F [C6 F13 / C8 H17] | 1.4 | 15.9 | 
18 | CCCCCCCCCCCCCCCC[N+](C)(C)CCNC(=S)NCCC(F)(F)C(F)(F)C(F)(F)C(F)(F)C(F)(F)C(F)(F)F [C6 F13 / C16 H33] | 0.7 | 20.3 | 
